Measurements reported in patent US20130236568A1, “PHOSPHAPLATINS HAVING ANTI-ANGIOGENIC, ANTI-METASTATIC, AND PRO-APOPTOTIC PROPERTIES AND USES THEREOF” (Ohio University, priority 2011, published 2013).

Tests used:
Assay type in all cases: cell-based, human
[1] = system: BID; test: Expression of key genes with and without p53 inhibitor (Table 3): BID; settings: positive = manifold increase, negative = decrease vs untreated cells
Procedure: Quantitative real-time PCR experiments were performed to estimate the expression of a selection of targeted genes. HUVEC cells (Lonza Walkersville, Frederick, Md.) were cultured on 0.1% gelatin-coated petri dishes by following standard protocols recommended by the vendor in a humidified incubator by maintaining 5% CO2 at 37° C. Human epithelial ovarian cancer cells (A2780) and cisplatin-resistant cells (A2780/C30) were cultured in RPMI 1640 with or without cisplatin (7 μM) and pyrodach-4 (180 μM) for 0, 3, 12 and 24 hours. […] HUVECs were treated with or without cisplatin (7 μM) or pyrodach-4 (90 or 180 μM) for various durations ranging from 1 hr. to 6 hrs.
(§1) Both treated and untreated cancer cells were maintained in RPMI 1640 medium with 10% fetal bovine serum, 2 μmol L-glutamine, 100 units/mL penicillin-streptomycin and 0.25 units/mL insulin solution, at 37° C. with 5% CO2. RNA was isolated from both the treated and untreated cells. […] The quantity and purity of RNA were determined by UV spectroscopy (NanoDrop 2000 Thermo Scientific, Wilmington, Del.). A minimum absorbance ratio index (ratio of the absorbance measured at 260 nm over that at 280 nm) of 1.9 was used as an acceptable purity. […] The target gene was labeled with a blue dye (FAM, absorbance: 494 nm, emission: 518 nm) while the reference gene was tagged with a green dye (VIC, absorbance: 538 nm, emission: 554 nm). […]

[2] = system: caspase-3; test: Quantitative real-time PCR, caspase-3 expression in HUVEC; settings: HUVEC treated with pyrodach-4
Procedure: (§2) Evaluations of selected gene expressions in Human Umbilical Vein Endothelial Cells (HUVEC) and Human Ovarian Cancer Cells by quantitative reverse transcriptase polymerase chain reaction (PCR)
(§3) Quantitative real-time PCR experiments were performed to estimate the expression of a selection of targeted genes. HUVEC cells (Lonza Walkersville, Frederick, Md.) were cultured on 0.1% gelatin-coated petri dishes by following standard protocols recommended by the vendor in a humidified incubator by maintaining 5% CO2 at 37° C. […]
as §1, with “CO2.” for “CO2. RNA was isolated from both the treated and untreated cells.”
(§4) The threshold cycle number (Ct), the point at which the fluorescence of the qPCR reaction just exceeds the threshold fluorescence of the detection system, was determined. […]

[3] = system: A2780 cells; test: Cell death detection assay with ELISA, A2780 cells; settings: 24 hr
Procedure: In these experiments, ovarian cancer cells were treated with pyrodach-4 in the presence and absence of inhibitors PFT-α (an inhibitor p53) and LY29400 (an inhibitor of PI3K).
Cells were treated with compounds for 24 hr. The different treatment groups from left to right are: control, 7 μM cisplatin, Con+PFT-α, 180 μM D4, 180 μM D4+PFT-α, 180 μM D4+LY294002. Statistical analysis was conducted using the Tukey test. N=3 and P<0.05. In the figure, “*” indicates values significant from untreated control.
A2780 and A2780/C30 cells were grown in monolayers, trypsinized and suspended in supplemented RPMI 1640 media as described in Example 5. All the treatments on the Fc/A2780 and Fc/A2780/C30 cell samples were carried out in triplicate. The ELISA was performed according to the manufacturer's instructions. Briefly, 50,000 cells were plated for each treatment and the cells were allowed to adhere for 4-6 hours. Cells were then either incubated with media alone (untreated sample) or with pyrodach-4 or cisplatin in the concentrations indicated above. […] The absorbances were measured at 405 and 490 nm for each treatment type using SPECTRA Max M2 multichannel fluorescence plate reader (Molecular Devices, Sunnyvale, Calif.). The absorbances of the treated samples were normalized to the substrate solution. […]

[4] = system: PTEN; test: Quantitative real-time PCR, PTEN expression in HUVEC; settings: HUVEC treated with pyrodach-4
Procedure: as §2, §3
as §1, with “CO2.” for “CO2. RNA was isolated from both the treated and untreated cells.”
as §4

[5] = system: PTEN; test: Quantitative real-time PCR, PTEN expression in A2780/C30 cells
Procedure: as §2, §3
as §1, with “CO2.” for “CO2. RNA was isolated from both the treated and untreated cells.”
as §4

[6] = system: Fas; test: Quantitative real-time PCR, Fas expression in HUVEC; settings: HUVEC treated with pyrodach-4
Procedure: as §2, §3
as §1, with “CO2.” for “CO2. RNA was isolated from both the treated and untreated cells.”
as §4

trans-(±)-1,2-cyclohexanediamine-trans-dihydroxo(pyrophosphato) platinum(IV) [Pyrodach-4]
Expression of BID ([1]; Pyrodach-4 + PFT-α): 1.0 | Expression of BID ([1]; Pyrodach-4 treatment only): 1.8 | Over-expression of caspase-3 [2]: 2-3 fold | Overall apoptotic cell death in the presence of inhibitors, compared to cisplatin ([3]; 180 μM D4 with PFT-α 15 μM or LY294002 30 μM vs 7 μM cisplatin): remained extremely high compared to cisplatin | Effect of p53 and PI3K inhibitors on apoptotic cell death (ELISA absorbance) ([3]; 180 μM D4 with PFT-α 15 μM or LY294002 30 μM): some reduction in cell death | Over-expression of PTEN [4]: 4-8 fold | Expression of the PTEN gene compared to control [5]: 2.3 fold | Normalized expression of PTEN ([5]; pyrodach-4 alone, control = 1.0): 2.3 | Over-expression of Fas [6]: 2-5 fold
